Columns and labels:
Cytochrome P450 4F3 = target: T1, Cytochrome P450 4F3 (Homo sapiens, UniProt Q08477); test: Metabolic clearance (ul.min.nmol-1 CYP) of aliskiren hemifumarate for CYP4F3B was determined in human liver microsome incubated with [14C]SPP100 hemifumarate; assay type: ADME; conditions: microsomes
T1 sequence (Q08477 whole entry): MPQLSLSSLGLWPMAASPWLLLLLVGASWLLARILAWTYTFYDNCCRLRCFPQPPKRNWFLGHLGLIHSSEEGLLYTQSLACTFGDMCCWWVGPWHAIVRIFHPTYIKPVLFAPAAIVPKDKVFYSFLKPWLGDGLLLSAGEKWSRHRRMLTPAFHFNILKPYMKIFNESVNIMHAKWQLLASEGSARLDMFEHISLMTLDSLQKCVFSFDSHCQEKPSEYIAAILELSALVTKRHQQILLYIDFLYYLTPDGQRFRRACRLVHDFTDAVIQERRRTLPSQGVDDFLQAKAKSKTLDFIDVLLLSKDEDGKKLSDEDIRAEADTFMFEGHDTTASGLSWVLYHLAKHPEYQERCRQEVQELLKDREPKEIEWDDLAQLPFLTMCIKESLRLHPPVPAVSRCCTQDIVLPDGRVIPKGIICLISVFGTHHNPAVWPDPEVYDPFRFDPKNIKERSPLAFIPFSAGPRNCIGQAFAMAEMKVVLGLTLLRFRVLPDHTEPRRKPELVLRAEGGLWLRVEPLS

[1] = AUC of [14C] aliskiren hemifumarate following single oral dose of [14C] aliskiren hemifumarate at 500 mg.Kg-1 level in mouse; assay type: ADME, organism-based, TgRasH2, Plasma; conditions: in vivo
[2] = Apparent Vmax value of metabolism of [14C] aliskiren hemifumarate studied in human liver microsome; assay type: ADME; conditions: microsomes
[3] = Concentration of radioactivity in carcass following oral administration of [14C] aliskiren hemifumarate at 100 mg.Kg-1 level measured on day 7 in rat; assay type: ADME, organism-based, Lister-Hooded; conditions: in vivo
[4] = Concentration of radioactivity in the liver following repeated oral administration of [14C] aliskiren hemifumarate at 100 mg.Kg-1 level studied at 2h after 7th dose in rat; assay type: ADME, organism-based, Albino HAN:WIST; conditions: in vivo
[5] = Mean excretion of radioactivity (72-96h) in urine and faeces following single oral dose of 100 mg.Kg-1 [14C] aliskiren hemifumarate in rat; assay type: ADME, organism-based, Albino HAN:WIST, Urine/Feces; conditions: in vivo
[6] = Mean excretion of radioactivity (0-24h) in urine and faeces following single oral dose of 100 mg.Kg-1 [14C] aliskiren hemifumarate in rat; assay type: ADME, organism-based, Albino HAN:WIST, Urine/Feces; conditions: in vivo
[7] = Concentration of radioactivity in the kidney medulla following repeated oral administration of [14C] aliskiren hemifumarate at 100 mg.Kg-1 level studied at 24h after 7th dose in rat; assay type: ADME, organism-based, Albino HAN:WIST, Renal medulla; conditions: in vivo
[8] = Absorption (0-96h) of unlabeled aliskiren hemifumarate following oral administration of aliskiren hemifumarate at 100 mg.Kg-1 level in rat; assay type: ADME, organism-based; conditions: Albino HAN:WIST, plasma, read-out: Absorption
[9] = Tmax of aliskiren hemifumarate following 4 week oral dietary dosing of aliskiren hemifumarate at 1000 mg.Kg-1 level in male mouse; assay type: ADME, organism-based; conditions: CB6F1-TGrasH2, mouse, in vivo
[10] = Effect of 2 week oral dosing of aliskiren hemifumarate at 10 mg.Kg-1 level on hematological parameter values in male Callithrix jacchus; assay type: toxicity, organism-based, Plasma; conditions: marmoset, in vivo, 336 h
[11] = Tmax of aliskiren hemifumarate following 8 day once-daily dosing of SPP100B oral solution at 80 mg level studied on day 8 in men; assay type: ADME, organism-based; conditions: male, human, plasma
[12] = Absolute oral bioavailability of aliskiren hemifumarate after single oral administration of [14C] aliskiren hemifumarate in mouse; assay type: ADME, organism-based, TgRasH2, Plasma; conditions: in vivo, 500 mg/kg
[13] = AUCspec of aliskiren hemifumarate following 2 week oral dosing of aliskiren hemifumarate at 10 mg.Kg-1 level studied on day 1 in male Callithrix jacchus; assay type: ADME, organism-based, Plasma; conditions: marmoset, in vivo, 336 h
[14] = Cmax of aliskiren hemifumarate following 8 day once-daily dosing of SPP100B oral solution at 640 mg level studied on day 8 in men; assay type: ADME, organism-based; conditions: male, human, plasma
[15] = AUC of aliskiren hemifumarate following 8 day once-daily dosing of SPP100B oral solution at 640 mg level studied on day 8 in men; assay type: ADME, organism-based; conditions: male, human, plasma
[16] = AUC(0-24h) of aliskiren hemifumarate following 2 week oral dosing of aliskiren hemifumarate at 50 mg.Kg-1 level studied on day 14 in male Callithrix jacchus; assay type: ADME, organism-based; conditions: marmoset, plasma
[17] = Effect of 2 week oral dosing of aliskiren hemifumarate at 50 mg.Kg-1 level on plasma magnesium level in male Callithrix jacchus; assay type: toxicity, organism-based; conditions: marmoset, 336 h
[18] = AUC (0-24h)/dose of aliskiren hemifumarate following 4 week oral dietary dosing of aliskiren hemifumarate at 2000 mg.Kg-1 level in female mouse; assay type: ADME, organism-based, CB6F1-TGrasH2, Plasma; conditions: in vivo
[19] = Tmax of aliskiren hemifumarate following single dosing of SPP100B oral solution at 640 mg level studied on day 1 in men; assay type: ADME, organism-based; conditions: male, human, plasma
[20] = Effect of 2 week oral dosing of aliskiren hemifumarate at 10 mg.Kg-1 level on blood urea nitrogen level in female Callithrix jacchus; assay type: toxicity, organism-based, Plasma; conditions: marmoset, 336 h
[21] = t1/2 of aliskiren hemifumarate following 2 week oral dosing of aliskiren hemifumarate at 50 mg.Kg-1 level studied on day 1 in male Callithrix jacchus; assay type: ADME, organism-based; conditions: marmoset, plasma
hERG (KCNH2) = hERG (KCNH2) (Homo sapiens, UniProt Q12809); test: Effects of 10 uM aliskiren hemifumarate on current through cloned hERG channel expressed in human embryonic kidney cell; assay type: cell-based; design: conc 10 uM, dose level Low; conditions: HEK293 cells that express cloned hERG channel, read-out: Inhibitory activity
Chain of hERG (KCNH2) (Q12809 whole entry): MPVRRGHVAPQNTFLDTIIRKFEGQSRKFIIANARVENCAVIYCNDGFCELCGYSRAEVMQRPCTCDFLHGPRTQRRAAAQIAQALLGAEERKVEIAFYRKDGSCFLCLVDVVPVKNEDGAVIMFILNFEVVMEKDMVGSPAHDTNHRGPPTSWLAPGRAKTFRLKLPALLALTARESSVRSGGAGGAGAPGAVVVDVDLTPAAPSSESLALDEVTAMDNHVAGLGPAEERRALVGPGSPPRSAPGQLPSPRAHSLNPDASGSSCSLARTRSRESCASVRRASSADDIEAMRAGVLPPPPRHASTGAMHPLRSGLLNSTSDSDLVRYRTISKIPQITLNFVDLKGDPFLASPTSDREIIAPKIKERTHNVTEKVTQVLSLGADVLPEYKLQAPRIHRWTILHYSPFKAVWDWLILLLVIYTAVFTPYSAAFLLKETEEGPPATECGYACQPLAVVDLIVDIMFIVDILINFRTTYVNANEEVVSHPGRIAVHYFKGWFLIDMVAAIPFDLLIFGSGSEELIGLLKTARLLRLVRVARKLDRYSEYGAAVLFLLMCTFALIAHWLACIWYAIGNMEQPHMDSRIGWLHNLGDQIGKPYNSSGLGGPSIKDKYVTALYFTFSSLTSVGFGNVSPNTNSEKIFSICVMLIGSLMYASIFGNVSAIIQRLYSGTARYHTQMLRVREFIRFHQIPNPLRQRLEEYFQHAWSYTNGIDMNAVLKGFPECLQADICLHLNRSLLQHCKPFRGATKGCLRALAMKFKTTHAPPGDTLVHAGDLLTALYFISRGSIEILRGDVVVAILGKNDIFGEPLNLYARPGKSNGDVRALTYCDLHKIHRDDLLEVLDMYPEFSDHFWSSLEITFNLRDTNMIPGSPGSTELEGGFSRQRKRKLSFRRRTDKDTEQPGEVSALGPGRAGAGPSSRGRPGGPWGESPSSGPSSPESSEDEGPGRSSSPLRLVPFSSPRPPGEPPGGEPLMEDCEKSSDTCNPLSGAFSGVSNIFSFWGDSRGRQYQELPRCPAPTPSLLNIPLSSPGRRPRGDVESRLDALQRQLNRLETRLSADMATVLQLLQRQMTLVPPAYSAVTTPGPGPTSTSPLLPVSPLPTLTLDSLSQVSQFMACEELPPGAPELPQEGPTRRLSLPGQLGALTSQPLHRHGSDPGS

[22] = Cmax of aliskiren hemifumarate following 4 week oral dietary dosing of aliskiren hemifumarate at 1000 mg.Kg-1 level in male mouse; assay type: ADME, organism-based; conditions: CB6F1-TGrasH2, mouse, in vivo
[23] = % SPP100 in urine and faeces following single oral dose of 300 mg [14C]SPP100 studied in healthy men; assay type: ADME, organism-based, Urine/Feces; conditions: human, in vivo, at 300 mg
CYP2C9 = CYP2C9 (Homo sapiens, UniProt P11712); test: Inhibitory activity of 20 uM SPP100 on 227 Pmoles of cDNA-derived CYP2C9 enzyme in microsome prepared from human lymphoblastoid cell line; assay type: ADME, microsomes; design: conc 20 uM, interact cpd conc 6 uM; conditions: probe diclofenac
Chain of CYP2C9 (P11712 whole entry): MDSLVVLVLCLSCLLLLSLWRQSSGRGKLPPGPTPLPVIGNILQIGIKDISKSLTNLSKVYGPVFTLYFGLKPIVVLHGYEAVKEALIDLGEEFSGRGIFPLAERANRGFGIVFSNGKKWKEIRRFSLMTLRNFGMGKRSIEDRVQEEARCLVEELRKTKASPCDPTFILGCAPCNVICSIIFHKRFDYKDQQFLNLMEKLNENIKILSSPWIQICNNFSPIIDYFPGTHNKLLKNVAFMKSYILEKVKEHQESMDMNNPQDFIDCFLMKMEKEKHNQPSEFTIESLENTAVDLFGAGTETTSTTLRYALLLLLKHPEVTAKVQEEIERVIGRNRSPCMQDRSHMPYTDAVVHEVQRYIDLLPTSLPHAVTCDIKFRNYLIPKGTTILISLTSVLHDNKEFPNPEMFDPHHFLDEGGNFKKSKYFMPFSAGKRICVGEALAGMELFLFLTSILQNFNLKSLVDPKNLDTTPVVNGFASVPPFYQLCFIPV

CYP2A6 = target: T2, CYP2A6 (Homo sapiens, UniProt P11509); test: Inhibitory activity of 20 uM SPP100 on 37 Pmoles of cDNA-derived CYP2A6 enzyme in microsome prepared from human lymphoblastoid cell line; assay type: ADME, microsomes; design: conc 20 uM, interact cpd conc 3 uM; conditions: probe coumarine
T2 sequence (P11509 whole entry): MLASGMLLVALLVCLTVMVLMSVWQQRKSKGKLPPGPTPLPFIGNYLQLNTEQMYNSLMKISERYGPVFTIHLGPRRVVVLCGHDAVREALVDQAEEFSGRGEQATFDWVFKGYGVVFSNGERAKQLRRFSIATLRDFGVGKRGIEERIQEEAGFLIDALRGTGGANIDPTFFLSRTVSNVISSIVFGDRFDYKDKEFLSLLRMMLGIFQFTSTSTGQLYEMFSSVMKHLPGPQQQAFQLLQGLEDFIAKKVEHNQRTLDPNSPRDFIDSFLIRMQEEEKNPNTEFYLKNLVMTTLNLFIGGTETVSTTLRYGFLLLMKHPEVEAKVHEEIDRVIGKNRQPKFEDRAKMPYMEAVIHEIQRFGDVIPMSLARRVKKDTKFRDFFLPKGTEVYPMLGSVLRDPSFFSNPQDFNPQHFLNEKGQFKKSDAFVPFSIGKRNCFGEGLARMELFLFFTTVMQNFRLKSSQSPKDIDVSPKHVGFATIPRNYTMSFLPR

**Q.** Which CL (Cytochrome P450 4F3) does the source give for COCCCOc1cc(C[C@@H](C[C@H](N)[C@@H](O)C[C@H](C(=O)NCC([14CH3])([14CH3])C(N)=O)C(C)C)C(C)C)ccc1OC.O=C(O)/C=C/C(=O)O here?
**A.** 24 µL·min/nmol

**Q.** And the AUC [1]?
**A.** 18.3 µM·h

**Q.** What about the Vmax [2] of the same molecule?
**A.** 1807.6 pmol·min/mg

**Q.** And the Radiolabel recovery [3]?
**A.** OUTCOME = Observed, VALUE = residues of radioactivity remained in the carcass at 7 days after dosing

**Q.** What about the Radiolabel recovery [4] of the same molecule?
**A.** OUTCOME = Detected

**Q.** What about the Radiolabel recovery [5] of the same molecule?
**A.** 2.54%

**Q.** And the Radiolabel recovery [6]?
**A.** 36.1%

**Q.** And the Radiolabel recovery [7]?
**A.** OUTCOME = Detected

**Q.** What does the source list for COCCCOc1cc(C[C@@H](C[C@H](N)[C@@H](O)C[C@H](C(=O)NCC(C)(C)C(N)=O)C(C)C)C(C)C)ccc1OC.COCCCOc1cc(C[C@@H](C[C@H](N)[C@@H](O)C[C@H](C(=O)NCC(C)(C)C(N)=O)C(C)C)C(C)C)ccc1OC.O=C(O)/C=C/C(=O)O [ALISKIREN FUMARATE]?
**A.** Fa [8]: ≥ 3.4%; Tmax [9]: 3 h; Change in hematology [10]: OUTCOME = Hematological parameter values did not differ from control values. No animals died during the study.; Tmax [11]: 1.8 h; F [12]: 1.5%; AUC normalised [13]: 2.2 ((ug.h.ml-1)/(mg/kg); Cmax [14]: 335 ng/mL; AUC at 192 h [15]: 2970 ng·h/mL; AUC at 24 h [16]: 107000 ng·h/mL; Plasma magnesium_CHANGE_BY [17]: 130%; AUC normalised [18]: 5.88 ((ng/mL).hours)/(mg/kg/day); Tmax [19]: 2.1 h; BUN_CHANGE_BY [20]: 69%; half-life [21]: 7.37 h; inhibition at 10 µM (hERG (KCNH2)): 1.4%; Cmax [22]: 879 ng/mL

**Q.** Which Compound recovery [23] does the source give for COCCCOc1cc(C[C@@H](C[C@H](N)[C@@H](O)C[C@H](C(=O)NCC(C)(C)C(N)=O)C(C)C)C(C)C)ccc1OC here?
**A.** 79.8%

**Q.** And the inhibition at 20 µM (CYP2C9)?
**A.** 13.1%

**Q.** What about the inhibition at 20 µM (CYP2A6) of the same molecule?
**A.** 2.6%
